Test systems include BT-549; DU-145; HCC 2998; HOP-62; HOP-92; Hs-578T; IGROV-1; LOX IMVI; M14; MCF7; NCI-H460; OVCAR-3; OVCAR-8; PC-3; SF-295; SK-MEL-2; SNB-19; SW-620; U-251; NCI/ADR-RES.
Holding throughout (assay): NCI anticancer screen, dose series, 48 h

Data on eight molecules can be found in ChEMBL document CHEMBL1201862, “PubChem BioAssay data set” (2004).

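Exposure lasted 48 hours, with cells grown in 96-well plates and compounds tested at five concentrations. Abbreviation: GI50, concentration required for 50% inhibition of growth.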 Calls of active or inactive are those of the source. Rule as the data show it: active = GI50 up to about 1.1 µM and inactive = higher.

Take `COc1cc2c(cc1OC)[C@H]1CN3CCC[C@H]3C=C1c1ccc(OC)c(O)c1-2`: the GI50 is 0.0195 µM (active) in the test with BT-549; 0.00342 µM (active) with DU-145; 0.0029 µM (active) with HCC 2998; < 0.0001 µM (active) in the test on HOP-62; < 0.0001 µM (active) with HOP-92; 0.00192 µM (active) in the test with Hs-578T. Further, the GI50 in the test with IGROV-1 is 0.000661 µM (active); in the test on LOX IMVI it was 0.000329 µM (active); in the test on M14 it was 0.00048 µM (active); in the test with MCF7, 0.00404 µM (active); with NCI-H460 it was 0.000558 µM (active); in the test on OVCAR-3, < 0.0001 µM (active). In addition, the GI50 in the test on OVCAR-8 is 0.000557 µM (active); in the test on PC-3, 0.00359 µM (active); with SF-295, < 0.0001 µM (active); in the test with SK-MEL-2, 0.000505 µM (active); with SNB-19, < 0.0001 µM (active); in the test on SW-620 it was 0.000499 µM (active). In addition, the GI50 in the test on U-251 is 0.000605 µM (active).

`C/C(=N\Nc1nc2ccccc2n1C)c1cnccn1`: the GI50 in the test on BT-549 was 5.25 µM (inactive); in the test with HCC 2998, 1.33 µM (inactive); in the test with HOP-62, 0.537 µM (active); with HOP-92, 0.227 µM (active); in the test on IGROV-1, 0.0435 µM (active); in the test with LOX IMVI, 0.129 µM (active). Also, the GI50 is 0.064 µM (active) in the test on M14; 0.0246 µM (active) in the test with MCF7; 0.223 µM (active) in the test on NCI-H460; 0.164 µM (active) with NCI/ADR-RES; 0.0326 µM (active) with OVCAR-3; 0.0615 µM (active) with OVCAR-8. In addition, the GI50 is 0.0426 µM (active) in the test on PC-3; 0.367 µM (active) in the test on SF-295; 0.839 µM (active) in the test on SK-MEL-2; 2.73 µM (inactive) with SNB-19; 0.0418 µM (active) in the test on SW-620; 0.339 µM (active) in the test with U-251.

Consider `O=C(Cn1cc(-c2ccccc2)nn1)NC1CCCCC1`, for which the GI50 is > 100 µM (inactive) in the test with BT-549; > 100 µM (inactive) in the test with DU-145; 54.5 µM (inactive) with HCC 2998; > 100 µM (inactive) in the test on HOP-62; > 100 µM (inactive) with HOP-92; > 100 µM (inactive) with IGROV-1. The GI50 in the test with LOX IMVI, with M14, in the test with MCF7, in the test on NCI-H460, with NCI/ADR-RES and in the test on OVCAR-8 was > 100 µM (inactive) throughout. For the same molecule, the GI50 in the test on PC-3, in the test on SF-295, with SK-MEL-2, in the test on SNB-19, with SW-620 and in the test on U-251 was > 100 µM (inactive) throughout.

Consider `COc1ccc(C(=O)c2nc3ccccc3nc2N2CCN(c3ccccc3)CC2)cc1OC`, for which the GI50 in the test with DU-145, in the test with HCC 2998, with HOP-62, in the test with HOP-92, in the test on Hs-578T and in the test on IGROV-1 was > 100 µM (inactive) in each case. For the same molecule, the GI50 in the test with LOX IMVI is > 100 µM (inactive); with M14, > 100 µM (inactive); in the test with MCF7, 39.1 µM (inactive); in the test with NCI-H460 it was > 100 µM (inactive); in the test on NCI/ADR-RES, > 100 µM (inactive); in the test with OVCAR-3 it was > 100 µM (inactive). The GI50 with OVCAR-8, with PC-3, in the test on SF-295, with SK-MEL-2, in the test on SNB-19 and in the test on SW-620 was > 100 µM (inactive) in each case. Also, the GI50 in the test with U-251 is > 100 µM (inactive).

Regarding `N#C/C(=C\n1ccc(=O)[nH]c1=S)C(N)=O`, the GI50 was > 100 µM (inactive) with DU-145; > 100 µM (inactive) with HCC 2998; > 100 µM (inactive) in the test on HOP-62; 73.6 µM (inactive) in the test on HOP-92; > 100 µM (inactive) with Hs-578T; > 100 µM (inactive) in the test on IGROV-1. In addition, the GI50 with LOX IMVI was > 100 µM (inactive); with M14, > 100 µM (inactive); in the test on MCF7 it was > 100 µM (inactive); with NCI-H460, > 100 µM (inactive); in the test with NCI/ADR-RES it was > 100 µM (inactive); with OVCAR-3 it was < 0.01 µM (active). Moreover, the GI50 with OVCAR-8, in the test on PC-3, with SF-295, in the test on SK-MEL-2, in the test with SNB-19 and in the test with SW-620 was > 100 µM (inactive) throughout. In the test on U-251, the GI50 was > 100 µM (inactive).

Regarding `COC(=O)[C@@]12CCCC(=O)[C@@H]1[C@H]1CCCC[C@H]12`, the GI50 in the test with BT-549 is > 100 µM (inactive); with DU-145, > 100 µM (inactive); in the test with HCC 2998, > 100 µM (inactive); in the test with HOP-62, > 100 µM (inactive); in the test on HOP-92, 32.1 µM (inactive); in the test on IGROV-1, > 100 µM (inactive). For the same molecule, the GI50 in the test on LOX IMVI, with M14, with MCF7, with NCI-H460, in the test with NCI/ADR-RES and in the test on OVCAR-3 was > 100 µM (inactive) in each case. The GI50 in the test with OVCAR-8, with PC-3, in the test on SF-295, in the test on SK-MEL-2, in the test with SNB-19 and in the test with SW-620 was > 100 µM (inactive) each time. Further, the GI50 in the test on U-251 is > 100 µM (inactive).

Turning to `CC(C)(C)[Si](C)(C)OCC1OC(n2ccc(=O)[nH]c2=O)C(O[Si](C)(C)C(C)(C)C)/C1=C/C#N` (stereo not given), the GI50 in the test on DU-145 was 5.48 µM (inactive); with HCC 2998, 5.48 µM (inactive); in the test on HOP-62, 12.5 µM (inactive); in the test with HOP-92 it was 5.93 µM (inactive); with Hs-578T, 5.73 µM (inactive); in the test on IGROV-1 it was 40.8 µM (inactive). In addition, the GI50 in the test with LOX IMVI was 5 µM (inactive); in the test on M14 it was 10.9 µM (inactive); in the test on MCF7, 3.96 µM (inactive); in the test with NCI-H460, 4.41 µM (inactive); with NCI/ADR-RES, 4.01 µM (inactive); in the test on OVCAR-3, 7.29 µM (inactive). Moreover, the GI50 is 6.65 µM (inactive) with OVCAR-8; 2.88 µM (inactive) with PC-3; 0.67 µM (active) in the test on SF-295; 0.757 µM (active) with SK-MEL-2; 31.8 µM (inactive) in the test with SNB-19; 0.838 µM (active) in the test on SW-620. The GI50 with U-251 was 4.21 µM (inactive).

Consider `N#Cc1nc(C2CCC2)oc1N`, for which the GI50 with DU-145, in the test with HCC 2998, in the test on HOP-62, in the test on HOP-92, with Hs-578T and with IGROV-1 was > 100 µM (inactive) in each case. Also, the GI50 in the test on LOX IMVI, with M14, in the test with MCF7, in the test on NCI-H460, with NCI/ADR-RES and with OVCAR-3 was > 100 µM (inactive) each time. The GI50 with OVCAR-8, with PC-3, in the test with SF-295, in the test on SK-MEL-2, in the test on SNB-19 and in the test on SW-620 was > 100 µM (inactive) each time. Further, in the test on U-251, the GI50 was > 100 µM (inactive).
